In article PMC10436550, “Subacute toxicity evaluations of LPM3480392 in rats, a full µ-opioid receptor biased agonist” (Frontiers in Pharmacology, 2023):
Read-outs that look alike come from different tables or passages of the source.

Experiments:
[1] = Toxicokinetics, plasma LPM3480392 after intravenous administration; type: in vivo, Sprague Dawley (SD) rats; details: male, Sprague-Dawley, rat, plasma, M; for concentration at 2 min: intravenous; for AUC(0-t): iv, read-out: AUC0–12h
Description: Blood samples from animals in LPM3480392 groups were collected at predose and 2 min, 30 min, 1 h and 4 h postdose of the 1st dosing on Days 1 and 28; at 2 min and 4 h postdose of the 2nd dosing on Days 1 and 28; at 2 min, 1 h and 4 h postdose the 3rd dosing on Days 1 and 28. Animals in control group were sampled at predose and 2 min postdose of the 1st dosing on Days 1 and 28. Approximately 0.36 mL of blood was collected from the jugular vein of surviving TK animals at each time point. Whole blood samples were anticoagulated with EDTA-K2 and centrifuged at 2°C–8°C and 1800 × g for 10 min. The harvested plasma was stored below −66°C before the analysis. LC-MS/MS methods (liquid chromatograph/mass spectrometer) were used to detect concentrations of LPM3480392 at each time point. TK parameters (AUC, Cmax, Tmax) were calculated by Phoenix WinNonlin (Pharsight) 8.2. The detection instruments include ultra-performance liquid chromatography (Waters, United States ACQUITY UPLC I -CLASS) and triple quadrupole tandem mass spectrometer (Waters, United States, Xevo TQ-S).

[2] = test system: Sprague Dawley (SD) rats; experiment: Urinalysis, 4-week subacute toxicity study; type: in vivo, rat
Description: Urine samples were directly collected from the metabolic cage at the end of dosing phase (Day 26) and at the end of recovery phase (Recovery Day 28), respectively. Urinalysis parameters in Table 1 were evaluated using CLINITEK Atlas automatic urine analyzer (Germany).

[3] = 0.6 mg/kg/day, End of dosing phase, N 5
[4] = 0.6 mg/kg/day, End of recovery phase, N 5
[5] = 1.2 mg/kg/day, End of dosing phase, N 5
[6] = 1.2 mg/kg/day, End of recovery phase, N 5
[7] = 2.4 mg/kg/day, End of dosing phase, N 4
[8] = 2.4 mg/kg/day, End of dosing phase, N 5
[9] = 2.4 mg/kg/day, End of recovery phase, N 4
[10] = 2.4 mg/kg/day, End of recovery phase, N 5

Fc1ccc([C@]2(CCNCc3cccc(Cl)c3)CCO[C@]3(CCOC3)C2)nc1 [LPM3480392]
concentration at 2 min ([1]; 1.2 mg/kg/day, 1.2 mg/kg/day iv, 28th dosing day, read-out: C2min (The 2nd dosing)): 113 ± 9.1 ng/mL | concentration at 2 min ([1]; 1.2 mg/kg/day, 1.2 mg/kg/day iv, 28th dosing day, read-out: C2min (The 3rd dosing)): 131 ± 18.7 ng/mL | concentration at 2 min ([1]; 2.4 mg/kg/day, 2.4 mg/kg/day iv, 1st dosing day, read-out: C2min (The 1st dosing)): 328 ± 33.8 ng/mL | concentration at 2 min ([1]; 2.4 mg/kg/day, 2.4 mg/kg/day iv, 1st dosing day, read-out: C2min (The 2nd dosing)): 289 ± 10.5 ng/mL | concentration at 2 min ([1]; 2.4 mg/kg/day, 2.4 mg/kg/day iv, 1st dosing day, read-out: C2min (The 3rd dosing)): 225 ± 40.9 ng/mL | concentration at 2 min ([1]; 2.4 mg/kg/day, 2.4 mg/kg/day iv, 28th dosing day, read-out: C2min (The 1st dosing)): 346 ± 46 ng/mL | concentration at 2 min ([1]; 2.4 mg/kg/day, 2.4 mg/kg/day iv, 28th dosing day, read-out: C2min (The 2nd dosing)): 259 ± 68.3 ng/mL | concentration at 2 min ([1]; 2.4 mg/kg/day, 2.4 mg/kg/day iv, 28th dosing day, read-out: C2min (The 3rd dosing)): 317 ± 47.9 ng/mL | AUC(0-t) ([1]; 0.6 mg/kg/day, 0.6 mg/kg/day iv, 1st dosing day): 310 ± 35.6 ng·h/mL | AUC(0-t) ([1]; 0.6 mg/kg/day, 0.6 mg/kg/day iv, 28th dosing day): 366 ± 14.7 ng·h/mL | AUC(0-t) ([1]; 1.2 mg/kg/day, 1.2 mg/kg/day iv, 1st dosing day): 607 ± 83.4 ng·h/mL | AUC(0-t) ([1]; 1.2 mg/kg/day, 1.2 mg/kg/day iv, 28th dosing day): 625 ± 28.9 ng·h/mL | AUC(0-t) ([1]; 2.4 mg/kg/day, 2.4 mg/kg/day iv, 1st dosing day): 1190 ± 87.1 ng·h/mL | AUC(0-t) ([1]; 2.4 mg/kg/day, 2.4 mg/kg/day iv, 28th dosing day): 1400 ± 168 ng·h/mL | KET (mmol/L) of males: animals with grade 1.5 [2, 3]: 3 | KET (mmol/L) of males: animals with grade 3.9 [2, 3]: 1 | KET (mmol/L) of males: animals with grade — [2, 3]: 1 | NIT of males: animals with grade + [2, 3]: 2 | NIT of males: animals with grade — [2, 3]: 3 | pH of females: animals with grade 7.0 [2, 3]: 1 | pH of females: animals with grade 7.5 [2, 3]: 3 | pH of females: animals with grade 8.5 [2, 3]: 1 | KET (mmol/L) of males: animals with grade 1.5 [2, 4]: 2 | KET (mmol/L) of males: animals with grade 3.9 [2, 4]: 1 | KET (mmol/L) of males: animals with grade — [2, 4]: 2 | NIT of males: animals with grade + [2, 4]: 3 | NIT of males: animals with grade — [2, 4]: 2 | pH of females: animals with grade 6.0 [2, 4]: 0 | pH of females: animals with grade 6.5 [2, 4]: 0 | pH of females: animals with grade 7.0 [2, 4]: 0 | pH of females: animals with grade 7.5 [2, 4]: 4 | pH of females: animals with grade 8.0 [2, 4]: 1 | KET (mmol/L) of males: animals with grade 1.5 [2, 5]: 3 | KET (mmol/L) of males: animals with grade 3.9 [2, 5]: 1 | KET (mmol/L) of males: animals with grade — [2, 5]: 1 | NIT of males: animals with grade + [2, 5]: 1 | NIT of males: animals with grade — [2, 5]: 4 | pH of females: animals with grade 7.0 [2, 5]: 1 | pH of females: animals with grade 7.5 [2, 5]: 3 | pH of females: animals with grade 8.5 [2, 5]: 1 | KET (mmol/L) of males: animals with grade 1.5 [2, 6]: 2 | KET (mmol/L) of males: animals with grade 3.9 [2, 6]: 1 | KET (mmol/L) of males: animals with grade — [2, 6]: 2 | NIT of males: animals with grade + [2, 6]: 1 | NIT of males: animals with grade — [2, 6]: 4 | pH of females: animals with grade 6.0 [2, 6]: 1 | pH of females: animals with grade 6.5 [2, 6]: 0 | pH of females: animals with grade 7.0 [2, 6]: 2 | pH of females: animals with grade 7.5 [2, 6]: 1 | pH of females: animals with grade 8.0 [2, 6]: 1 | pH of females: animals with grade 7.0 [2, 7]: 0 | pH of females: animals with grade 7.5 [2, 7]: 1 | pH of females: animals with grade 8.5 [2, 7]: 3 | KET (mmol/L) of males: animals with grade 1.5 [2, 8]: 0 | KET (mmol/L) of males: animals with grade 3.9 [2, 8]: 0 | KET (mmol/L) of males: animals with grade — [2, 8]: 5 | NIT of males: animals with grade + [2, 8]: 1 | NIT of males: animals with grade — [2, 8]: 4 | pH of females: animals with grade 6.0 [2, 9]: 0 | pH of females: animals with grade 6.5 [2, 9]: 2 | pH of females: animals with grade 7.0 [2, 9]: 2 | pH of females: animals with grade 7.5 [2, 9]: 0 | pH of females: animals with grade 8.0 [2, 9]: 0 | KET (mmol/L) of males: animals with grade 1.5 [2, 10]: 1 | KET (mmol/L) of males: animals with grade 3.9 [2, 10]: 0 | KET (mmol/L) of males: animals with grade — [2, 10]: 4 | NIT of males: animals with grade + [2, 10]: 0 | NIT of males: animals with grade — [2, 10]: 5
